Patent US20200000752A1, “Method for Treating Epilepsy” (Vanderbilt University, priority 2016, published 2020)
pIC50: −log10 of the molar value.

Assays:
Scn1a^+/− mice = assay: Survival and seizure activity in Scn1a+/- mice after 1 month off celastrol; type: in vivo, mouse; settings: 0.3 mg/kg 14 d on and 1 month off
Description: Intermittent dosing will greatly increase compliance and reduce side effects for long-term treatment. However, it is necessary to determine the duration the efficacy lasts after certain doses and the duration it takes to recover to baseline.

heat shock protein Hsp70 = assay: Hsp70 expression by high throughput flow cytometry in HEK 293T cells; type: cell-based; settings: 4 hrs before harvest
Description: HEK 293T cells were transfected with α1, β2 and wild-type γ2S (wt) or the mutant γ2S(Q390X) (mut) subunits for 48 hrs (FIG. 16). […] The cells were permeabilized and stained with monoclonal hsp70 (1:200) which was then conjugated with Alexa 647.

[1] = Hepatic microsomal clearance (mouse); type: in vitro ADME; settings: liver microsomes, pH 7.4
Description: (§1) Intrinsic clearance and predicted hepatic clearance: Intrinsic clearance will be determined using the substrate depletion approach. Reactions (0.3 mL) will be conducted using a Tecan EVO (San Jose, Calif.) in 96-well polypropylene cluster tubes with a temperature controlled water-jacketed aluminum plate holder held at 37° C. Incubations will be performed in triplicate in 0.1 M potassium phosphate buffer (pH 7.4), 3 mM MgCl2, 1 μM tizanidine, and 1 mg/mL liver microsomes. After incubation mixtures are equilibrated for 3 min at 37° C., reactions will be initiated with 10 mM NADPH to give a final NADPH concentration of 1 mM. At 0, 3, 7, 15, 25, and 45 min, a 25 μL aliquot will be removed from the reactions and delivered into 125 μL of acetonitrile containing an internal standard. The quench plates will then be centrifuged at 3,000×g for 10 min and an aliquot of the supernatants added to an injection plate with an equal volume of water. Samples will then be analyzed using LC/MS/MS.
(§2) Intrinsic clearance is calculated as: […]
(§3) Species-specific parameters for mouse and human liver protein content will be used. The predicted hepatic clearance will then be estimated using species-specific liver blood flow values: […]

CYP 2C19 = CYP 2C19 (Homo sapiens, UniProt P33261); assay: biochemical
CYP 2C19, sequence (P33261 whole entry): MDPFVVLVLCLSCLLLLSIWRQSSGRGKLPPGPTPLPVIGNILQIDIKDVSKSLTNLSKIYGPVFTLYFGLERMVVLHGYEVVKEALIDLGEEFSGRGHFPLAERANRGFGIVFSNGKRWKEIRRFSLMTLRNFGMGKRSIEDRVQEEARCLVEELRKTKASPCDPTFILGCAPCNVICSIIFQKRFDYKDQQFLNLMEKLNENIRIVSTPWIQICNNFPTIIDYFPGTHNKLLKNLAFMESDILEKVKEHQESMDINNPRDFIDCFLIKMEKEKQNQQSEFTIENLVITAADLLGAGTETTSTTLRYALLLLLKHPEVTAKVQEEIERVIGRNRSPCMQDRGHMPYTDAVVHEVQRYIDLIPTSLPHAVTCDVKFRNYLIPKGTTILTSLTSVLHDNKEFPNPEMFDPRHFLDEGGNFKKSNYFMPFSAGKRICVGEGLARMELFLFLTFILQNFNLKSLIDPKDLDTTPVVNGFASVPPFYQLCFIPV

CYP 2D6 = CYP 2D6 (Homo sapiens, UniProt P10635); assay: biochemical
CYP 2D6, sequence (P10635 whole entry): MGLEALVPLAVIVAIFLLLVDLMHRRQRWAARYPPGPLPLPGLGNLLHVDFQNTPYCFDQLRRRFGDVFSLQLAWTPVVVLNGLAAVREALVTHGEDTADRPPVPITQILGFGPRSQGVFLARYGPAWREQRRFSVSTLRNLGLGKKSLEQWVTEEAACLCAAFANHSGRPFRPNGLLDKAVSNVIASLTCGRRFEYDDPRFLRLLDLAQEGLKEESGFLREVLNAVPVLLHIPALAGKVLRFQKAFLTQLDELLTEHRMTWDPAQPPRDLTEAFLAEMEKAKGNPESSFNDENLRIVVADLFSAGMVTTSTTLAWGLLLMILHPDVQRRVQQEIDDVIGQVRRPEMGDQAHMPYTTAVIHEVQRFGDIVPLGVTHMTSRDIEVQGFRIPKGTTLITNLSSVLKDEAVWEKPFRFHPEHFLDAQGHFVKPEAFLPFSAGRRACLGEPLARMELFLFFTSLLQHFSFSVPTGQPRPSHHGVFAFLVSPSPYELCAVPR

[2] = Hepatic microsomal clearance (human); type: in vitro ADME; settings: liver microsomes, pH 7.4
Description: as §1, §2, §3

Plasma protein binding = type: in vitro ADME; settings: read-out: fraction unbound in plasma (fuplasma)
[3] = In vivo exposure (IV and PO) in rat
[4] = tested on: epilepsy mouse models, AppSWE/PsenIdE9 mice; assay: PTZ seizure severity (Racine scale) in different epilepsy mouse models and AppSWE/PsenIdE9 mice; type: in vivo; settings: 0.3 mg/kg IP daily×14 days; PTZ 50 mg/kg IP; n=5 per group
Description: In this regard, an asterisk stands for the mutant protein aggregation in the neurons in related mouse models.

[5] = tested on: GABAA receptor α1 and γ2 subunits; assay: Surface and total GABAA receptor subunit expression in Gabrg2+/Q390X mice; type: in vivo, mouse
Description: As shown in FIG. 14A upper panel, the surface proteins (FIG. 14A) from the live mouse brain slices were biotinylated and analyzed by SDS-PAGE and immunoblotted with anti-γ2 or anti-al subunit antibody. In the lower panel, the protein from total lysates of cortex was analyzed by SDS-PAGE and immunoblotted with anti-γ2 subunit antibody. LC is the loading control GAPDH in the blots. FIG. 14B charts the protein IDVs of surface wild-type γ2 or al subunits (upper panel) or total level wild-type γ2 subunits (lower panel) were normalized to its loading control and then to that in untreated wild-type mice which was arbitrarily taken as 1.

[6] = target: T1, GABAA α1β2γ2(R82Q) receptors (Homo sapiens, UniProt P14867+P18507+P47870, R82Q); assay: Patch clamp current amplitude, α1β2γ2(R82Q) receptors in HEK 293T cells; type: cell-based; settings: 1 μm, 4 hrs; GABA 1 mM
T1 construct: expressed in transfected cells; host or cells: HEK 293T
T1 sequence (P14867 28-456): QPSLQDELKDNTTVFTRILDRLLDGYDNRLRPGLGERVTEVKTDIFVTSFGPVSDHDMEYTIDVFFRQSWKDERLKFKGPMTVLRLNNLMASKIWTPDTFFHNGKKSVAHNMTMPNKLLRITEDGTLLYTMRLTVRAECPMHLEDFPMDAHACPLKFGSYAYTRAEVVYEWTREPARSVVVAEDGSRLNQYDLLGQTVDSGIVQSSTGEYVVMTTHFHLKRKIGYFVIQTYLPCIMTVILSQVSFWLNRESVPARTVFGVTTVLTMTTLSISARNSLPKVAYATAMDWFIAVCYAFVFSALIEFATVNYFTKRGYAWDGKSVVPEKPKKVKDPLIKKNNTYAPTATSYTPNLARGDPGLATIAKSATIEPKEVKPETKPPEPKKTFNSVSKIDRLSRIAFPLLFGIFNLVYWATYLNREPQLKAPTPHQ
T1 sequence (P47870 25-512 limits assumed): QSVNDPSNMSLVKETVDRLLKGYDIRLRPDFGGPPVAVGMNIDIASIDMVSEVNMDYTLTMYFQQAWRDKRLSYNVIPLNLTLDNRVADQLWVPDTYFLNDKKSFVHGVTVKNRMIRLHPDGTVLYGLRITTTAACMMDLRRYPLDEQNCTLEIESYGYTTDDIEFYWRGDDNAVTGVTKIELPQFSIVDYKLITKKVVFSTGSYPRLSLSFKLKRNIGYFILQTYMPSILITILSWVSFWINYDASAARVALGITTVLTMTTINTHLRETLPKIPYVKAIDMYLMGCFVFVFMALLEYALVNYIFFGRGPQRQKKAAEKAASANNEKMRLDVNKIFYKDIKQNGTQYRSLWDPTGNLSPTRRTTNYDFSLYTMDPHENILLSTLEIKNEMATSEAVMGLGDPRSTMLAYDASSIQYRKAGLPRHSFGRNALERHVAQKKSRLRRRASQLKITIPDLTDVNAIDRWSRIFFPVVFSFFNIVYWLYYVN
T1 sequence (P18507 40-467 isoform P18507-1 R82Q limits assumed): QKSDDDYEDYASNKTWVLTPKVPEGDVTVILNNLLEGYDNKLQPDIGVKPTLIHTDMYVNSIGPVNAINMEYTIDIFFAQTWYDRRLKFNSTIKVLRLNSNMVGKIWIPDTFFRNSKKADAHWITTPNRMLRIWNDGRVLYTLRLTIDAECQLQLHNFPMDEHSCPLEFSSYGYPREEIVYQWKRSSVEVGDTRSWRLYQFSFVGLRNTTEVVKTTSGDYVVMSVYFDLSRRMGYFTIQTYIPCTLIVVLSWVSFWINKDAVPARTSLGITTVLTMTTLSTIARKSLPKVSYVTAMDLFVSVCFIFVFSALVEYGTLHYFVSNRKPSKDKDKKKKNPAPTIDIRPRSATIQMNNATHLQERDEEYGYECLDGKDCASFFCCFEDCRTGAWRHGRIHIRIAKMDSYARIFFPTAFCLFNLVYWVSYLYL
Description: HEK 293T cells were transfected with the human GABAA receptor α1, β2 subunits with the wild-type γ2s, the mutant γ2s(Q390X) or γ2s(R82Q) subunits for 48 hrs. […] A. Lifted whole cells were recorded with the application of GABA 1 mM for 6 sec. Cells was voltage clamped at −50 mV.
HEK 293T cells were transfected with the human GABAA receptor α1, β2 subunits with the wild-type γ2s, the mutant γ2s(Q390X) or γ2s(R82Q) subunits for 48 hrs.

[7] = tested on: cytochrome P450 enzymes (CYPs); settings: cited from earlier work
[8] = tested on: GABAA receptor α1 subunit; assay: GABAAR α1 subunit expression by high-throughput flow cytometry in HEK 293T cells; type: cell-based, human
Description: The neuronal viability was determined with membrane integrity by trypan blue exclusion method^12. The mean survival was determined by counting eight randomly selected, non-overlapping fields with each containing approximately 10-20 neurons (viable+nonviable) (n=4 different cultures). GABAAR expression was determined by the high-throughput flow cytometry. HEK 293T cells were transfected with human α1, β2 and γ2 subunit cDNAs at 1:1:1 ratio for 48 hours. The α1 subunit was chosen as readout. The anti-α1 antibody was directly conjugated with Alexa 488 (data are mean±SEM, n=4). The healthy population was gated.
HEK 293T cells were transfected with wt γ2 or γ2(Q390X) subunits in combination with al and […] subunits at 1:1:1 cDNA ratio for 48 hrs. […] The cells were either unpermeabilized for surface staining (FIG. 11A, 11C) or permeabilized for total staining (FIG. 11B, 11D). al subunits were probed with mouse anti-α1 subunit antibody conjugated with Alexa 647. The relative al subunit fluorescence intensity (FI) was normalized to the wild-type without celastrol treatment.

GABAA receptor subunits = assay: Surface GABAA receptor subunit expression in Scn1a+/- mice; type: in vivo, mouse; settings: 0.3 mg/kg IP for 14 days, cortex and thalamus
Description: The biotinylated surface proteins from either cortex (FIG. 15A) or thalamus (FIG. 15B) were analyzed by SDS-PAGE and immunoblotted with anti-GABAA receptor al subunit antibody. The protein IDVs of al subunits were normalized to its loading control and then to that in either cortex (cor) or thalamus (tha) in untreated wild-type mice (n==4) (FIGS. 15C and 15D). […] In FIGS. 15E and 15G, MJ stands for myoclonic jerks with behavioral correlation while GTCS for generalized tonic clonic seizures. The number of myoclonic jerks (MJ) and generalized tonic clonic seizures (GTCS) is the total number over 24 hrs. In G, mice were from the same litter, n=2 for each genotype.

For CC1=C(O)C(=O)C=C2C1=CC=C1[C@@]2(C)CC[C@@]2(C)[C@@H]3C[C@](C)(C(=O)O)CC[C@]3(C)CC[C@]12C [Celastrol, 3-Hydroxy-9β,13α-dimethyl-2-oxo-24,25,26-trinoroleana-1(10),3,5,7-tetraen-29-oic acid], the “seizure duration after PTZ” value (Scn1a^+/− mice) was “shortened seizure duration”, the “seizure onset after PTZ” value (Scn1a^+/− mice) was “delayed seizure onset” and the “seizure severity after PTZ” value (Scn1a^+/− mice) was “reduced seizure severity”. For the same molecule, the survival (Scn1a^+/− mice; vs untreated littermates) was “increased survival”, the “expression of Hsp70” value (heat shock protein Hsp70) was “Increased” and the CLint scaled [1] was 160 mL/min/kg. The pIC50 (CYP 2C19) was less than 5.00, the pIC50 (CYP 2D6) was less than 5.00 and the CLint scaled [2] was 31 mL/min/kg. The fraction unbound (Plasma protein binding) was less than 0.022, the half-life [3] was 10 h and the bioavailability ([3]; po) was 7.8%. For the same molecule, the seizure severity [4] was “reduced seizure severity”, the “surface and total α1 and γ2 subunits” value ([5]; 0.3 mg/kg IP for 14 days, n=4 mice) was “increase of both the surface and total α1 and γ2 subunits were greater in the mutant mice than in the wildtype” and the “increase of surface γ2 subunits compared with mutant mice treated with vehicle” value ([5]; 0.3 mg/kg, ip) was 40-50%. For the same molecule, the current amplitude [6] was “increased”, the “CYP inhibition as reported in the literature” value [7] was “inhibits several CYP enzymes” and the cell death ([8]; HEK 293T dishes with 2 and 4 μm) was “Cell death was observed”. The “surface α1 subunits” value ([8]; HEK 293T, α1β2γ2, 0-8 μm for 4 hours) was “concentration dependently increased” and the “surface GABAA receptor subunit expression” value (GABAA receptor subunits) was “Increased”.
